# Experiments:
# Zika virus (ZIKV) = experiment: Zika virus infection of HFF cells (focus forming units, percent infected cells); type: cell-based
# Method: FIG. 32 presents line graphs that show the number and size of Focus Forming Units (FFU) after HFF cells were treated with the indicated concentrations of compound 4 for 5 h and infected with ZIKV for 40 h, in accordance with embodiments of the invention.
# HFF cells were treated with compound 4 and infected with Zika virus (ZIKV), a member of the flavivirus family.
# To determine if pretreatment was required to suppress ZIKV infection, cells were pretreated with compound 4 or were treated 3 h post ZIKV adsorption. While pretreatment was modestly more efficient at suppression of infection at lower compound 4 concentrations, it was not essential to effect significant suppression (FIG. 34).
# HSV-1 [1] = experiment: Mouse trigeminal ganglia explant reactivation model, viral yield titrated on Vero cells; type: cell-based, herpes simplex virus 1 (HSV-1); conditions: explant 48-hrs; compound 1 35 μM, compound 3 30 μM, compound 4 30 μM
# Method: Trigeminal ganglia from HSV-1 latently infected mice were bisected. Half were explanted in media with control DMSO (vehicle), and the other half were explanted in media with ACV (100 μM), ML324 (50 μM), compound 1 (35 μM), compound 3 (30 μM), or compound 4 (30 μM) for 48-hrs to induce viral reactivation. Viral yields were determined by titrating on Vero cells. Each point represents the titer of one explanted trigeminal ganglia.
# neutrophil (Ly6G) = experiment: Neutrophil recruitment to the site of HSV infection in mouse eyes; type: in vivo, Balb/c mice; conditions: topical to the eyes, 30 μM twice daily, day 5
# Method: The eyes of Balb/c mice were scarified and mock or infected with 2×10^5 pfu of HSV-1 (strain F) per eye. Beginning on day 0.5, the eyes of mice were treated either with EZH1/2 inhibitor (compound 4: 30 μM), acyclovir (ACV: 30 μM), or vehicle control twice daily. On day 5, the eyes were fixed in paraformaldehyde and tissue sections were co-stained with anti-HSV-1, anti-Ly6G (neutrophil), and DAPI.
# HSV-1 [2] = experiment: HSV-1 viral IE mRNA levels in infected HFF cells; type: cell-based, herpes simplex virus 1 (HSV-1)
# Description: The HFF cells were then infected with HSV-1 [2.0 PFU (plaque-forming units) per cell] for 1.5-hrs in the presence of inhibitor or DMSO. […] In the figures, the levels of HSV viral IE (ICP4, ICP22, and ICP27) and cellular control (TBP and SP1) mRNAs are expressed relative to cells treated with DMSO (vehicle). […] The HFF cells were then infected with HSV-1 (2.0, 5.0, and 10.0 PFU per cell) for 1.5-hrs in the presence of the inhibitor or DMSO. The levels of HSV viral IE (ICP0, ICP4, ICP22, and ICP27) and cellular controls (SP1 and TBP) mRNAs are expressed relative to cells treated with DMSO (vehicle). […] The levels of HSV viral IE (ICP0, ICP4, ICP22, and ICP27) and cellular control (SP1 and TBP) mRNAs are expressed relative to cells treated with DMSO (vehicle). […] HFF and Vero cells were then infected with HSV-1 (2.0 PFU per cell) for 1.5-hrs in the presence of inhibitor or DMSO. The levels of HSV viral IE (ICP0, ICP4, ICP22, and ICP27) and cellular control (SP1 and TBP) mRNAs are expressed relative to cells treated with DMSO (vehicle). […] HFF cells were treated with EZH1/2 catalytic inhibitor compound 4 (30 μM) or DMSO for 5-hrs. HFF cells were then mock or infected with HSV-1 (2.0 PFU per cell) for 1.5-hrs in the presence of inhibitor or DMSO. The levels of HSV viral IE (ICP4 and ICP27), control (SP1), and cellular innate interferon signaling (IFN-α, TNF-α, IL-8) mRNAs are expressed as absolute levels (absolute copies). […] HFF cells were treated with the EZH1/2 catalytic inhibitor compound 4 (5 μM) or DMSO for the indicated time as shown in FIG. 12. […] The levels of HSV viral IE (ICP0, ICP4, ICP22, and ICP27), control (TBP, ABAT, APOL3, UTX, and JMJD3), and cellular innate interferon signaling (IFN-α) mRNAs are expressed as ratios relative to cells treated with DMSO (vehicle). In this Example compound 4 was decreased to 5 μM and the duration of pretreatment was increased to 12, 24, and 48-hrs.
# HSV-1 [3] = experiment: UL29+ single neurons and neuron clusters in explanted trigeminal ganglia; type: cell-based, herpes simplex virus 1 (HSV-1); conditions: explant 48-hrs; compound 1 35 μM, compound 4 30 μM, ACV 100 μM, ML324 50 μM
# Description: (§1) Trigeminal ganglia were fixed in paraformaldehyde and tissue sections were contained with anti-UL29 and DAPI. The HSV E gene UL29 (DNA single strand binding replication protein) was used a marker for viral reactivation. Tissue sections were scored for UL29+ cell clusters (clusters indicate viral spread from the primary neuron to surrounding cells) and for individual neurons representing the primary reactivation event (single) (FIGS. 18 and 19).
# as §1, with “costained” for “contained”, “(FIG. 25).” for “(FIGS. 18 and 19).”
# HSV-1 [4] = experiment: HSV-1 cellular and nuclear entry (viral DNA in total and nuclear fractions of HFF cells); type: cell-based, herpes simplex virus 1 (HSV-1); conditions: compound 1 35 μM, compound 4 30 μM, 5-hrs pretreatment, HSV-1 2.0 PFU per cell 1.5-hrs
# Method: HFF cells were treated with the EZH1/2 catalytic inhibitor compound 1 (35 μM), compound 4 (30 μM), or DMSO (vehicle) for 5-hrs. The HFF cells were then infected with HSV-1 (2.0 PFU per cell) for 1.5-hrs in the presence of the inhibitors or DMSO (vehicle). The levels of HSV viral DNA isolated from total and nuclear cellular fractions are expressed as ratios relative to DMSO (vehicle).
# HSV-1 [5] = experiment: HSV-1 viral IE mRNA levels in infected Vero (IFN-β null, IRF3 deficient) cells; type: cell-based, herpes simplex virus 1 (HSV-1); conditions: 5-hrs pretreatment, HSV-1 2.0 PFU per cell
# Method: HFF (wild-type) and Vero (IFN-β null, IRF3 deficient) cells were treated with the indicated concentration of EZH1/2 catalytic inhibitor (compound 1 or 4) or DMSO (vehicle) for 5-hrs. HFF and Vero cells were then infected with HSV-1 (2.0 PFU per cell) for 1.5-hrs in the presence of inhibitor or DMSO. The levels of HSV viral IE (ICP0, ICP4, ICP22, and ICP27) and cellular control (SP1 and TBP) mRNAs are expressed relative to cells treated with DMSO (vehicle).
# [6] = HFF cells treated 5 h, infected with ZIKV for 40 h, dose-dependent
smiles,measurement,setting,value
"CC[C@H](C)n1cc(C)c2c(C(=O)NCc3c(C)cc(C)[nH]c3=O)cc(-c3ccc(N4CCNCC4)nc3)cc21 [compound 4, GSK126]",number of ZIKV infected cells (intracellular staining for ZIKV antigens),Zika virus (ZIKV); 1 and 2 dpi,reduction
same,number of ZIKV focus forming units (plaques),Zika virus (ZIKV); [6],significantly reduced
same,size of ZIKV focus forming units (plaques),Zika virus (ZIKV); [6],significantly reduced
same,requirement of pretreatment for suppression of ZIKV infection,Zika virus (ZIKV); pretreated vs treated 3 h post ZIKV adsorption,not essential
same,HSV reactivation from latency (viral yield per explanted trigeminal ganglia),HSV-1 [1],block HSV reactivation from latency
same,neutrophil recruitment to the site of HSV infection,neutrophil (Ly6G),Recruitment/infiltration of neutrophils
same,effect of increasing the duration of pretreatment on HSV IE expression,"HSV-1 [2]; 5 μM, pretreatment 12, 24, and 48-hrs",enhanced the suppression of HSV IE expression
same,cellular control SP1 mRNA,"HSV-1 [2]; 30 μM, 5-hrs",no impact
same,HSV viral IE expression (ICP4 and ICP27 mRNA),"HSV-1 [2]; 30 μM, 5-hrs, HSV-1 2.0 PFU per cell 1.5-hrs",represses HSV viral IE expression
same,primary reactivation (UL29+ single neurons),HSV-1 [3],reduced
same,secondary spread of HSV (UL29+ neuron clusters),HSV-1 [3],reduced
same,HSV-1 viral entry (total and nuclear),HSV-1 [4],no impact
same,antiviral activity (HSV IE mRNA) in Vero cells as compared to HFF (wild-type) cells,HSV-1 [5],lack of antiviral activity

# From patent US20180071284A1, “PREVENTING OR TREATING VIRAL INFECTION BY INHIBITION OF THE HISTONE METHYLTRANSFERASE EZH1 OR EZH2” (The United States of America, as represented by the …, priority 2015, published 2018)
